Converted amounts (≈) assume the structure as drawn. One block for each compound: values may come before it.
Tests used:
Trypanosoma cruzi [1] = experiment: Antitrypanosomal activity against Trypanosoma cruzi Brener; assay type: functional, organism-based
Trypanosoma cruzi [2] = experiment: Antitrypanosomal activity against Trypanosoma cruzi Tulahuen; assay type: functional, organism-based
Trypanosoma cruzi [3] = experiment: Antitrypanosomal activity against Trypanosoma cruzi LQ; assay type: functional, organism-based
[4] = Selectivity index, ratio of CC50 for […] J774.2 cells to IC50 Leishmania infantum MCAN/ES/2001/UCM-10; assay type: toxicity; conditions: J774.2 cells versus Leishmania infantum MCAN/ES/2001/UCM-10; read-out: Ratio CC50/IC50
[5] = Cytotoxicity against mouse J774.2 cells; assay type: toxicity, cell-based
Leishmania infantum = experiment: Antileishmanial activity against Leishmania infantum amastigotes MCAN/ES/2001/UCM-10 infected in J774.2 cells; assay type: functional, organism-based; conditions: MCAN/ES/2001/UCM-10, J774.2
Trypanosoma cruzi [6] = experiment: Antitrypanosomal activity against Trypanosoma cruzi INC-5; assay type: functional
Trypanosoma cruzi [7] = experiment: Antitrypanosomal activity against Trypanosoma cruzi NINOA; assay type: functional
Leishmania donovani [8] = experiment: Antileishmanial activity against Leishmania donovani axenic amastigotes; assay type: functional, organism-based
[9] = Cytotoxicity against rat L6 cells; assay type: toxicity, cell-based
[10] = Selectivity index, ratio of CC50 for rat L6 cells to IC50 for Leishmania donovani; assay type: toxicity; conditions: L6 cells versus Leishmania donovani, read-out: Ratio CC50/IC50
Trypanosoma cruzi [11] = experiment: Antitrypanosomal activity against Trypanosoma cruzi X10/7-Silvio; assay type: functional, organism-based
[12] = Cytotoxicity against CHO cells; assay type: toxicity, cell-based, Cricetulus griseus; conditions: chinese hamster
Leishmania donovani [13] = experiment: Antileishmanial activity against Leishmania donovani LCR-L 133 LRC infected in J774.2 cells; assay type: functional, organism-based
[14] = Selectivity index, ratio of CC50 for […] J774.2 cells to IC50 Leishmania donovani LCR-L 133 LRC; assay type: toxicity; conditions: J774.2 cells versus Leishmania donovani LCR-L 133 LRC; read-out: Ratio CC50/IC50
[15] = Cytotoxicity against african green monkey Vero cells; assay type: toxicity, cell-based; conditions: chlorocebus sabaeus, read-out: LC50 (the source's name)
[16] = Selectivity index, ratio of EC50 for Trypanosoma cruzi epimastigotes to LC50 for african green monkey Vero cells; assay type: toxicity; conditions: Vero cells versus Trypanosoma cruzi epimastigotes, read-out: Selectivity Index
Trypanosoma cruzi [17] = experiment: Antitrypanosomal activity against Trypanosoma cruzi epimastigotes; assay type: functional, organism-based
Trypanosoma cruzi [18] = experiment: Antitrypanosomal activity against Trypanosoma cruzi epimastigotes assessed as parasite growth inhibition at 50 uM; assay type: functional; set-up: scale not given: the % may be the effect or the level left
[19] = Selectivity index, ratio of CC50 for […] J774.2 cells to IC50 Leishmania braziliensis MHOM/BR/1975/M2904; assay type: toxicity; conditions: read-out: Ratio CC50/IC50
Leishmania braziliensis = experiment: Antileishmanial activity against Leishmania braziliensis MHOM/BR/1975/M2904 infected in J774.2 cells; assay type: functional, organism-based; conditions: MHOM/BR/1975/M2904, J774.2
Trypanosoma cruzi [20] = experiment: Antitrypanosomal activity against Trypanosoma cruzi Y; assay type: functional, organism-based

Compound: Cn1c([N+](=O)[O-])cnc1-c1nnc(NC(=O)C(F)(F)F)s1
- IC50 (Trypanosoma cruzi [1]): 31.2 µM
- IC50 (Trypanosoma cruzi [2]): 34.2 µM

Compound: CC(=O)Nc1nnc(-c2ncc([N+](=O)[O-])n2C)s1
- IC50 (Trypanosoma cruzi [1]): 7.44 µM
- IC50 (Trypanosoma cruzi [2]): 7.46 µM
- IC50 (Trypanosoma cruzi [3]): 7.44 µM

Compound: O=[N+]([O-])c1ccc(/C=N/NS(=O)(=O)c2ccccc2)cc1
- LC50 (Trypanosoma cruzi [6]): 4.68 µM
- LC50 (Trypanosoma cruzi [7]): 26.3 µM

Compound: O=[N+]([O-])c1ccccc1/C=N/NS(=O)(=O)c1ccccc1
- LC50 (Trypanosoma cruzi [6]): 15.2 µM
- LC50 (Trypanosoma cruzi [7]): 218 µM

Compound: O=[N+]([O-])c1ccc(/C=N/N=c2\[nH]nc(Cl)c3ccccc23)o1
- CC50 [15]: 100 µM
- selectivity ratio [16]: 8.82
- EC50 (Trypanosoma cruzi [17]): 6.3 µM
- Activity (Trypanosoma cruzi [18]): 48%

Compound: CCC(=O)N(/N=C/c1ccccc1[N+](=O)[O-])S(=O)(=O)c1ccccc1
- LC50 (Trypanosoma cruzi [6]): 0.61 µM
- LC50 (Trypanosoma cruzi [7]): 68.1 µM

Compound: O=[N+]([O-])c1ccc(/C=N/N=c2\[nH]nc(Cl)c3ccccc23)s1
- CC50 [15]: 37 µM
- selectivity ratio [16]: 5.14
- EC50 (Trypanosoma cruzi [17]): 7.2 µM
- Activity (Trypanosoma cruzi [18]): 54%

Second part, led by results:

- IC50 (Leishmania infantum): 9.1 µM
Compound: CNCCOCCn1nc(OCc2ccccc2)c2cc([N+](=O)[O-])ccc21
- selectivity ratio [4]: 21.6
- CC50 [5]: 197 µM

- IC50 (Leishmania infantum): 12.1 µM
Compound: Cn1nc(OCc2ccccc2)c2cc([N+](=O)[O-])ccc21
- selectivity ratio [4]: 14.8
- CC50 [5]: 179 µM

- IC50 (Leishmania donovani [8]): 0.081 µg/mL (≈ 0.191 µM)
Compound: COc1cc(CSc2nnc(-c3ncc([N+](=O)[O-])n3C)s2)cc(OC)c1OC
- CC50 [9]: 19.4 µg/mL (≈ 45.9 µM)
- selectivity ratio [10]: 240

- EC50 (Trypanosoma cruzi [11]): 3.6 µM
Compound: O=C(Cn1cccc1[N+](=O)[O-])Nc1cccc(C(F)(F)F)c1
- CC50 [12]: 156 µM

- IC50 (Leishmania donovani [13]): 1.6 µM
Compound: O=[N+]([O-])c1ccc2c(c1)c(Oc1ccccc1)nn2CCBr
- CC50 [5]: 588 µM
- selectivity ratio [14]: 120

- IC50 (Leishmania braziliensis): 8.1 µM
- IC50 (Leishmania infantum): 3.5 µM
Compound: COc1nn(CCN)c2ccc([N+](=O)[O-])cc12
- selectivity ratio [19]: 60
- selectivity ratio [4]: 140
- CC50 [5]: 489 µM

- EC50 (Trypanosoma cruzi [11]): 6 µM
Compound: O=C(Cn1cccc1[N+](=O)[O-])Nc1ccccc1
- CC50 [12]: 262 µM

- IC50 (Trypanosoma cruzi [20]): 38.6 µM
Compound: Cn1cnc([N+](=O)[O-])c1-c1nnc(N)[nH]1
